# Laboratory results taken from patent publication US11912719B2, “Substituted isoquinolines as rock kinase inhibitors” (Cervello Therapeutics LLC, priority 2018, dated 2024).
# Columns and labels:
# Assay type in all cases: biochemical
# [1] = target: T1, cGMP-dependent protein kinase 1 (PKG or PRKG1) (Homo sapiens, UniProt Q13976); experiment: fluorescence coupling (TR-FRET) enzymatic assay, PKG off-target control; details: 8 nM enzyme, 30 μM ATP, 50 nM Ulight-CREBTide, one hour room temperature
# T1 construct: GST; purchased Carna BioSciences 01-142
# T1 sequence (Q13976 1-686 isoform Q13976-2): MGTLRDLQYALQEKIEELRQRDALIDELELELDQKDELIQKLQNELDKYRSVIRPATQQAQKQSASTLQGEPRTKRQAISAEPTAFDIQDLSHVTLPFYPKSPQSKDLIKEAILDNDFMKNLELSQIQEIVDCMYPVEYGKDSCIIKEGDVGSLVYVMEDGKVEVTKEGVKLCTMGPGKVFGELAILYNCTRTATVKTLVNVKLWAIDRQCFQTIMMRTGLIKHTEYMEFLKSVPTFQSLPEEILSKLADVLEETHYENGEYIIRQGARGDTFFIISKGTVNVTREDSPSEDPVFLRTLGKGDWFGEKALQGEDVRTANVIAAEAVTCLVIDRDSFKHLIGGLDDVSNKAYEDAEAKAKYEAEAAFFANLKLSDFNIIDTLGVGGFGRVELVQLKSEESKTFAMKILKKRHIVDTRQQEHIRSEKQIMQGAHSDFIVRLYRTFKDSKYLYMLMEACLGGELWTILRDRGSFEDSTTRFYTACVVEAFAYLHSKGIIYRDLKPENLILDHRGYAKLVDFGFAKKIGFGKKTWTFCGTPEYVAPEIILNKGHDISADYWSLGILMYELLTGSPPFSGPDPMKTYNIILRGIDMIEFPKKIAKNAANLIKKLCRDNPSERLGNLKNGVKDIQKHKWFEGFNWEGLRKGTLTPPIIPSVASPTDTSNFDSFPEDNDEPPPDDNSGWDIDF
# Procedure: (§1) Dose-response curves for compounds of the present invention were determined using a fluorescence coupling enzymatic assay using purified C-terminal truncated human ROCK1 catalytic domain (amino acids 1-477 of accession number NP_005397.1) fused to GST (Carna BioSciences, Catalog #01-109) and purified C-terminal truncated human ROCK2 enzyme kinase domain (amino acids 1-553 of accession number NP_004841.2) fused to GST BioSciences, Catalog #01-110). In addition, full length cGMP-dependent protein kinase 1 (PKG or PRKG1; amino acids 1-686 of accession number NP_006249.1) fused to GST (Carna BioSciences, Catalog #01-142), full length PKACα (PRKACA; amino acids 1-351 of accession number NP_002721.1) fused to GST (Carna BioSciences, Catalog #01-127), and C-terminal truncated human AKT1 catalytic domain (amino acids 104-480 of accession number NP_005154.1) fused to GST Biosciences, Catalog #01-101) were used as a control to measure any non-desired off-target kinase activity.
# (§2) Briefly, compounds of the present invention were solubilized in DMSO and a series of 12, three-fold serial dilutions were made for each compound in 2.5% DMSO. The initial starting concentration for the serial dilutions of each compound was 10 μM or 100 μM. Control samples lacking compound, ROCK enzyme or ATP also were prepared and processed in parallel with compound test samples.
# (§3) A 4 μL aliquot of each serial dilution of test compound diluted in H2O with 2.5% DMSO was added to a well containing 4 μL of 10 nM purified N-truncated ROCK1 (4 nM final concentration), 10 nM purified N-truncated ROCK2 enzyme (4 nM final concentration), 1.25 nM AKT1 (0.5 nM final concentration), 25 pM PKACA (10 pM final concentration) or 20 nM PKG (8 nM final concentration), in reaction buffer containing 50 mM Hepes, pH 7.5, 1 mM EGTA, 10 mM MgCl2, 2 mM DTT, and 0.01% Tween 20 (final concentration). To initiate the enzymatic reaction, 2 μL of a solution was added to each well to provide a final concentration of 50 nM Ulight-CREBTide peptide substrate (Perkin Elmer, Catalog #TRF0107) and 4 μM ATP for ROCK1 and AKT1 assays, […] for ROCK2 assays and 30 μM ATP for PKG assays, or 1 μM ATP for PKACA assays. The reaction mixtures were incubated at room temperature for one hour. After one hour, the reaction was stopped by the addition of a 10 solution of an Europium-labelled phospho-CREB (Ser133) antibody (Perkin Elmer, Catalog #TRF0200) in LANCE buffer supplemented with 20 mM EDTA. The stopped reaction mixtures were incubated at room temperature for 90 minutes. The TR-FRET 665/620 ratios were determined using a Clariostar monochromator plate reader instrument (BMG LabTech) in accordance with the manufacturer's instructions. The ICso value for each compound was determined from each dose-response curve using GraphPad Prism 7 software with a sigmodial dose response. Key: A is IC50≤100 nM; B is 100 nM<IC50<1000 nM; C is 1,000<IC50≤10,000 nM; D is IC50>10,000 nM
# [2] = target: T2, human ROCK1 catalytic domain (Homo sapiens, UniProt Q13464); experiment: fluorescence coupling (TR-FRET) enzymatic assay, ROCK1; details: 4 nM enzyme, 4 μM ATP, 50 nM Ulight-CREBTide, one hour room temperature; read-out: ROCK1 IC50
# T2 construct: GST; purchased Carna BioSciences 01-109
# Procedure: as §2
# The reaction mixtures were incubated at room temperature for one hour. After one hour, the reaction was stopped by the addition of a 10 solution of an Europium-labelled phospho-CREB (Ser133) antibody (Perkin Elmer, Catalog #TRF0200) in LANCE buffer supplemented with 20 mM EDTA. The stopped reaction mixtures were incubated at room temperature for 90 minutes. […] The ICso value for each compound was determined from each dose-response curve using GraphPad Prism 7 software with a sigmodial dose response.
# [3] = target: T3, human ROCK2 enzyme kinase domain (Homo sapiens, UniProt O75116); experiment: fluorescence coupling (TR-FRET) enzymatic assay, ROCK2; details: 4 nM enzyme, 50 nM Ulight-CREBTide, one hour room temperature
# T3 construct: GST; purchased Carna BioSciences 01-110
# Procedure: as §1, §2, §3
# [4] = target: T4, human AKT1 catalytic domain (Homo sapiens, UniProt P31749); experiment: fluorescence coupling (TR-FRET) enzymatic assay, AKT1 off-target control; details: 0.5 nM enzyme, 4 μM ATP, 50 nM Ulight-CREBTide, one hour room temperature
# T4 construct: GST; purchased Carna BioSciences 01-101
# Procedure: as §1, §2, §3
# [5] = target: T5, PKACα (PRKACA) (Homo sapiens, UniProt P17612); experiment: fluorescence coupling (TR-FRET) enzymatic assay, PKACA off-target control; details: 10 pM enzyme, 1 μM ATP, 50 nM Ulight-CREBTide, one hour room temperature
# T5 construct: GST; purchased Carna BioSciences 01-127
# Procedure: as §1, §2, §3
# T4 sequence (P31749 104-480): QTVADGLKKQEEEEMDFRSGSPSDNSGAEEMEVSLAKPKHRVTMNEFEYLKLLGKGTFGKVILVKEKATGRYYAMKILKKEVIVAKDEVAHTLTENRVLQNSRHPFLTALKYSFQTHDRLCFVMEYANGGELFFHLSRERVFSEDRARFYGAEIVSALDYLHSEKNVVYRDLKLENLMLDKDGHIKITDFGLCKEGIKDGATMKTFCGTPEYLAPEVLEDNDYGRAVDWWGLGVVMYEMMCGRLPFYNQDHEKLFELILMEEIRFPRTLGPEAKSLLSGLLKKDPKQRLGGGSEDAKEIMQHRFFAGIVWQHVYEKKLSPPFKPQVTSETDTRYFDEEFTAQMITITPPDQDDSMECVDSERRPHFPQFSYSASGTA
# T3 sequence (O75116 1-553): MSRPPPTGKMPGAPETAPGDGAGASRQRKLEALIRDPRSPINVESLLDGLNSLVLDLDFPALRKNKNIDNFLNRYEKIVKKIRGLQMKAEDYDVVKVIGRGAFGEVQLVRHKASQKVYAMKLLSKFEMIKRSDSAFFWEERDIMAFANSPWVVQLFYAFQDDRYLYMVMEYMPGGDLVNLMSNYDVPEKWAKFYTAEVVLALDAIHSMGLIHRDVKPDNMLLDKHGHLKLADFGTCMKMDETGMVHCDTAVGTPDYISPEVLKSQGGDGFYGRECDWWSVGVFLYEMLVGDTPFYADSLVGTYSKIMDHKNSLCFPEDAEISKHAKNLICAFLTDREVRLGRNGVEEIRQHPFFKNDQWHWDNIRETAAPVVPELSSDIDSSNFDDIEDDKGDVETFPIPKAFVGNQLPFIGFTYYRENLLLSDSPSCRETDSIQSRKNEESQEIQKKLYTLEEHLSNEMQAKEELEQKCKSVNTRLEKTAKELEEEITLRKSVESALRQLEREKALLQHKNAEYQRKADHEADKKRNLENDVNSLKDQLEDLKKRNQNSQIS
# T2 sequence (Q13464 1-477): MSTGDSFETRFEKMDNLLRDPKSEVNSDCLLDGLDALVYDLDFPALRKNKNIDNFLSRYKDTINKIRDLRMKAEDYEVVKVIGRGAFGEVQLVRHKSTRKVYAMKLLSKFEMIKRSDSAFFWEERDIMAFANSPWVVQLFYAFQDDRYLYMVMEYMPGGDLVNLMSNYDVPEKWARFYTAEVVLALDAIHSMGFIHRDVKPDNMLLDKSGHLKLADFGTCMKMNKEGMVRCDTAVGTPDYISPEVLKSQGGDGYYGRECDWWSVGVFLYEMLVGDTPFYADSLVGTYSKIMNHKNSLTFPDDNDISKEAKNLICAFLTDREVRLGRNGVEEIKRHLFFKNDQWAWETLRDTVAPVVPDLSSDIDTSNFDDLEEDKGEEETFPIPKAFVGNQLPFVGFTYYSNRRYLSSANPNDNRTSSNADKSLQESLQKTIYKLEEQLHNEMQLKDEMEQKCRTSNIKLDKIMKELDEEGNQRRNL
IC50 [1] [µM],IC50 [2] [µM],IC50 [3] [µM],IC50 [4] [µM],IC50 [5] [µM],Structure (SMILES)
> 10,> 10,> 10,> 10,> 10,"N#Cc1ccc2c(c1)N(S(=O)(=O)c1cc(Cl)cc3c(=O)[nH]ccc13)CC2 [Example 20, 1-((7-Chloro-1-oxo-1,2-dihydroisoquinolin-5-yl)sulfonyl)indoline-6-carbonitrile]"
> 10,> 10,> 10,> 10,> 10,"O=S(=O)(c1cccc2c(O)ncc(F)c12)N1CCc2ccc(Cl)cc21 [Example 21, 5-((6-Chloroindolin-1-yl)sulfonyl)-4-fluoroisoquinolin-1-ol]"
> 10,< 0.1,< 0.1,> 10,1 to 10,"Cc1cnc(O)c2cccc(S(=O)(=O)N3CCc4ccc(C#N)cc43)c12 [Example 22, 1-((1-Hydroxy-4-methylisoquinolin-5-yl)sulfonyl)indoline-6-carbonitrile]"
> 10,0.1 to 1,0.1 to 1,> 10,> 10,"Cc1cc(C#N)cc2c1CCN2S(=O)(=O)c1cccc2c(O)ncc(C)c12 [Example 23, 1-((1-Hydroxy-4-methylisoquinolin-5-yl)sulfonyl)-4-methylindoline-6-carbonitrile]"
> 10,1 to 10,1 to 10,> 10,> 10,"Cc1cnc(O)c2cccc(S(=O)(=O)N3CCc4ccc(Cl)cc43)c12 [Example 24, 5-((6-Chloroindolin-1-yl)sulfonyl)-4-methylisoquinolin-1-ol]"
> 10,1 to 10,1 to 10,> 10,> 10,"O=c1[nH]ncc2c(S(=O)(=O)N3CCc4ccc(Cl)cc43)cccc12 [Example 25, 5-((6-Chloroindolin-1-yl)sulfonyl)phthalazin-1 (2H)-one]"
> 10,0.1 to 1,0.1 to 1,> 10,> 10,"N#Cc1ccc2c(c1)N(S(=O)(=O)c1cccc3c(=O)[nH]ncc13)CC2 [Example 26, 1-((1-Oxo-1,2-dihydrophthalazin-5-yl)sulfonyl)indoline-6-carbonitrile]"
> 10,< 0.1,< 0.1,1 to 10,1 to 10,"N#Cc1ccc2c(c1)N(S(=O)(=O)c1cccc3c(=O)[nH]cc(Cl)c13)CC2 [Example 27, 1-((4-chloro-1-oxo-1,2-dihydroisoquinolin-5-yl)sulfonyl)indoline-6-carbonitrile]"
> 10,0.1 to 1,0.1 to 1,> 10,> 10,"N#Cc1cc2c(cn1)CCN2S(=O)(=O)c1cccc2c(=O)[nH]ccc12 [Example 28, 1-((1-oxo-1,2-dihydroisoquinolin-5-yl)sulfonyl)-2,3-dihydro-1H-pyrrolo[3,2-c]pyridine-6-carbonitrile]"
> 10,< 0.1,< 0.1,1 to 10,1 to 10,"COc1cc(C#N)cc2c1CCN2S(=O)(=O)c1cccc2c(=O)[nH]ccc12 [Example 29, 4-methoxy-1-((1-oxo-1,2-dihydroisoquinolin-5-yl)sulfonyl)indoline-6-carbonitrile]"
> 10,< 0.1,< 0.1,1 to 10,1 to 10,"CC(=O)Nc1cc(C#N)cc2c1CCN2S(=O)(=O)c1cccc2c(=O)[nH]ccc12 [Example 30, N-(6-cyano-1-((1-oxo-1,2-dihydroisoquinolin-5-yl)sulfonyl)indolin-4-yl)acetamide]"
> 10,< 0.1,< 0.1,> 10,1 to 10,"N#Cc1cc(N)c2c(c1)N(S(=O)(=O)c1cccc3c(=O)[nH]ccc13)CC2 [Example 31, 4-amino-1-((1-oxo-1,2-dihydroisoquinolin-5-yl)sulfonyl)indoline-6-carbonitrile]"
1 to 10,< 0.1,< 0.1,> 10,> 10,"CC(=O)Nc1cc(C#N)cc2c1CCN2S(=O)(=O)c1cccc2c(=O)[nH]cc(C)c12 [Example 32, N-(6-cyano-1-((4-methyl-1-oxo-1,2-dihydroisoquinolin-5-yl)sulfonyl)indolin-4-yl)acetamide]"
> 10,< 0.1,< 0.1,> 10,> 10,"Cc1c[nH]c(=O)c2cccc(S(=O)(=O)N3CCc4c(N)cc(C#N)cc43)c12 [Example 33, 4-amino-1-((4-methyl-1-oxo-1,2-dihydroisoquinolin-5-yl)sulfonyl)indoline-6-carbonitrile]"
> 10,1 to 10,1 to 10,> 10,> 10,"Cc1c[nH]c(=O)c2cccc(S(=O)(=O)N3CCc4c(N(C)C)cc(C#N)cc43)c12 [Example 34, 4-(dimethylamino)-1-((4-methyl-1-oxo-1,2-dihydroisoquinolin-5-yl)sulfonyl)indoline-6-carbonitrile]"
1 to 10,< 0.1,< 0.1,> 10,> 10,"CC(=O)Nc1cc(C#N)cc2c1CCN2S(=O)(=O)c1cccc2c(=O)[nH]cc(Cl)c12 [Example 35, N-(1-((4-chloro-1-oxo-1,2-dihydroisoquinolin-5-yl)sulfonyl)-6-cyanoindolin-4-yl)acetamide]"
1 to 10,< 0.1,< 0.1,> 10,> 10,"N#Cc1cc(N)c2c(c1)N(S(=O)(=O)c1cccc3c(=O)[nH]cc(Cl)c13)CC2 [Example 36, 4-amino-1-((4-chloro-1-oxo-1,2-dihydroisoquinolin-5-yl)sulfonyl)indoline-6-carbonitrile]"
